These are literature values, as cited in patent US20090062369A1, “USE OF SECRETORY PHOSPHOLIPASE A2 (SPLA2) INHIBITORS TO DECREASE SPLA2 LEVELS” (priority 2007, published 2009).

The series has as its system sPLA2. The note with it: cited from earlier work.

In the case of `CCc1c(C(=O)C(N)=O)c2c(OCC(=O)O)cccc2n1Cc1ccccc1` [A-001, ((3-(2-Amino-1,2-dioxoethyl)-2-ethyl-1-(phenylmethyl)-1H-indol-4-yl)oxy)acetic acid], the “mode of sPLA2 inhibition” value is recorded as “competitively inhibits sPLA2”.
